Measured values published in publication PMC3914206.

How the values were obtained:
Assay type in all cases: binding
panel of 442 kinases [1] = biological target: T1, panel of 442 kinases (Homo sapiens, UniProt P36896); conditions: Compound Concentration 10 µM
T1 construct: purchased KINOMEscan
T1 sequence (P36896 24-505): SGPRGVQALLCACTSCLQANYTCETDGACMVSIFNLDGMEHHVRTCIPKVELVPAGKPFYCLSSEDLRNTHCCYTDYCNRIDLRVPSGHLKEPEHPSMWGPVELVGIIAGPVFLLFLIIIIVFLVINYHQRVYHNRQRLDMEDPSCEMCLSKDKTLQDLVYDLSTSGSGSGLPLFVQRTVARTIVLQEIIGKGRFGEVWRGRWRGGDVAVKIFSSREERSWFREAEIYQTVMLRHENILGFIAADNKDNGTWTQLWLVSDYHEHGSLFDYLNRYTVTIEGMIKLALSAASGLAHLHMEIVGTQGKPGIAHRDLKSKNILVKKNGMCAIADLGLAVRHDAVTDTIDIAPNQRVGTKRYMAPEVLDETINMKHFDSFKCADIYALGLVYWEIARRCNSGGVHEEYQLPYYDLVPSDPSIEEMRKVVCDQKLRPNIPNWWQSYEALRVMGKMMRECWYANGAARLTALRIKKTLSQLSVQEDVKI
Source text: (§1) We assessed the selectivity of members of this scaffold using the KINOMEscan methodology across a near comprehensive panel of 442 kinases [[18,27]].

panel of 442 kinases [2] = biological target: T2, panel of 442 kinases (Homo sapiens, UniProt P49841); conditions: Compound Concentration 10 µM
T2 construct: purchased KINOMEscan
T2 sequence (P49841 whole entry): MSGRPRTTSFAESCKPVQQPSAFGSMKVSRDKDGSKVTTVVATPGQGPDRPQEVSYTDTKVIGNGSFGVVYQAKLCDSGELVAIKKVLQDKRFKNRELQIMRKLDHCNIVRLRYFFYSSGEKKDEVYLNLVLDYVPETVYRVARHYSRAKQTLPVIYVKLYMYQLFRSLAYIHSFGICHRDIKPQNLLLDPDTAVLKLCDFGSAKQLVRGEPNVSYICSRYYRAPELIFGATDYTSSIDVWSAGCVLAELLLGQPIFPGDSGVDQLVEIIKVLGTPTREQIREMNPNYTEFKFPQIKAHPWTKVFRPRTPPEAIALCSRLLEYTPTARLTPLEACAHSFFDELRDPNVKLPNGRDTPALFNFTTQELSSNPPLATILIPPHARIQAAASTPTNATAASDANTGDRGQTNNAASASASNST
Source text: as §1

panel of 442 kinases [3] = biological target: T3, panel of 442 kinases (Homo sapiens, UniProt P0C264); conditions: kinase SgK110; compound concentration 10 µM
T3 construct: purchased KINOMEscan
T3 sequence (P0C264 1-359): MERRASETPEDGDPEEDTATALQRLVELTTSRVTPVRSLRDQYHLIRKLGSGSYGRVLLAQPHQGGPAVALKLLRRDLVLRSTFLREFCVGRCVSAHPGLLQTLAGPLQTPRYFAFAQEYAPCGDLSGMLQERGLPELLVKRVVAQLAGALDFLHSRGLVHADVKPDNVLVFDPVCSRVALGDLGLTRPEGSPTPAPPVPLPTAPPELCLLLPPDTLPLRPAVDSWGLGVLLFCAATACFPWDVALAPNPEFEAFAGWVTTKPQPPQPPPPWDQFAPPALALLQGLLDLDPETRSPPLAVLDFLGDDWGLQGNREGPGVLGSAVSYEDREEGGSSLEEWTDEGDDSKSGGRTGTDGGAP
Source text: as §1

## COc1cc(C(=O)N2CCC(N3CCN(C)CC3)CC2)ccc1Nc1ncc2c(n1)N(C)c1ccccc1C(=O)N2C [15 (LRRK2-IN-1)]
Panel of 442 kinases [1]
  KINOMEscan: ACVR1B: 100
Panel of 442 kinases [2]
  KINOMEscan: GSK3B: 88
Panel of 442 kinases [3]
  % Ctrl, SgK110: 62 % Ctrl

## CCOc1cc(C(=O)N2CCC(N3CCN(C)CC3)CC2)ccc1Nc1ncc2c(n1)N(C1CCCC1)c1ccccc1C(=O)N2C [Compound 26]
Panel of 442 kinases [1]
  KINOMEscan: ACVR1B: 100
Panel of 442 kinases [2]
  KINOMEscan: GSK3B: 98
Panel of 442 kinases [3]
  % Ctrl, SgK110: 81 % Ctrl

## COc1cc(C(=O)N2CCC(N3CCN(C)CC3)CC2)ccc1Nc1ncc2c(n1)N1CCc3cccc(c31)C(=O)N2C [Compound 24]
Panel of 442 kinases [2]
  KINOMEscan: GSK3B: 72

## COc1cc(C(=O)N2CCC(N3CCN(C)CC3)CC2)ccc1Nc1ncc2c(n1)N(C1CCCC1)c1ccccc1C(=O)N2C [Compound 25, 11-cyclopentyl-2-((2-methoxy-4-(4-(4-methylpiperazin-1-yl)piperidine-1-carbonyl)phenyl)amino)-5-methyl-5H-benzo[e]pyrimido[5,4-b][1,4]diazepin-6(11H)-one]
Panel of 442 kinases [1]
  KINOMEscan: ACVR1B: 97
Panel of 442 kinases [2]
  KINOMEscan: GSK3B: 80
Panel of 442 kinases [3]
  % Ctrl, SgK110: 43 % Ctrl
